Assay results taken from patent publication US20050192285A1, “Method of treatment” (priority 2000, published 2005).
“And” between values parts separate entries of the source, which are not always exact repeats. Equal entries are not always repeated.

Legend:
[1] = GLOBE study: recurrence of AECB requiring antimicrobial treatment over 26 weeks; format: in vivo, human; conditions: for Difference GEMI-CLARI in % patients with no recurrences / % patients resolved and with no recurrences of AECB: ITT; for % patients resolved and with no recurrences of AECB: GEMI 320 mg o.d./5 days, CLARI 500 mg b.d./7 days
Procedure: Background: Few health outcome studies have been reported for antimicrobial treatment of acute infections. In one study, trends favoring ciprofloxacin versus ‘usual care’ in terms of clinical outcomes were found (Grossman, et al., Chest, 113:131-141 (1998)). In this double-blind, prospective long-term study, patients who enrolled into a study comparing 320 mg gemifloxacin (GEMI) once daily (o.d.)/5 days with 500 mg clarithromycin (CLARI) twice daily (b.d.)/7 days for the treatment of AECB, and agreed at enrollment to continue in the study for up to 26 weeks, were assessed for clinical status and use of health care resources.
Methods: Clinical assessments were performed at screening (day 0), week 4-5 (end of acute study), weeks 12 and 26 and by telephone at weeks 8, 17 and 21.
(§1) Prospective, 26 week, double-blind, observational parallel/follow-on study to an acute treatment efficacy and safety study (study 068) (Wilson, et al., Abstracts of the 40th Interscience Conference of Clinical Microbiology and Infectious Diseases, Toronto, Canada, Abstract 815 (2000)) in which patients randomly received a single course of either 5 days of oral GEMI 320mg once daily (o.d.) or 7 days of oral CLARI 500 mg twice daily (b.d.) for AECB (Wilson, et al., Abstracts of the 40th Interscience Conference of Clinical Microbiology and Infectious Diseases, Toronto, Canada, Abstract 815 (2000)).
All patients entering study 068 at centers in the USA and Canada were asked to participate in the GLOBE study.
(§2) Patients were assessed at screening (visit 1) at day 28-35 (visit 2) then at weeks 12 (visit 3) and 26 (visit 4) and by telephone at weeks 8, 17 and 21.
(§3) Information was collected on: recurrent episodes of AECB requiring antimicrobial treatment; use of medical resources related to respiratory tract infection (RTI), including RTI-related:- hospitalizations, physician visits and antimicrobial therapy; time off work and usual activities; and negative impact on performance at work or during usual activities.
Clinical outcomes were analyzed for patients in the intention to treat population (ITT) who were available for assessment at 26 weeks (visit 4).

[2] = cited from earlier work
[3] = GLOBE study: RTI-related hospitalizations over 26 weeks; format: in vivo, human; conditions: for percentage of patients hospitalized for RTI-related conditions / cumulative number of patients hospitalized for RTI-related conditions: 26 week study period; for cumulative number of patients hospitalized for RTI-related conditions: ITT (GEMI N=214, CLARI N=224)
Procedure: as §1, §2, §3
Medical resource utilization was analyzed on cumulative data across all patients in the ITT population.

H. influenzae = conditions: subset of patients with daily sputum cultures; p=0.02; cited from earlier work

Row | SMILES | patients with a recurrence of AECB ([1]; by week 26) [%] | % patients resolved and with no recurrences of AECB ([1]; visit 2 (day 28-35)) | % patients resolved and with no recurrences of AECB ([1]; visit 3 (week 12)) | % patients resolved and with no recurrences of AECB ([1]; visit 4 (week 26)) | RTI-related hospitalization days per 100 patients ([3]; 26-week study period) [days per 100 patients] | Cumulative number of RTI-related hospitalization days, mean (SD) ([3]; 26-week study period, ITT) | Cumulative number of RTI-related hospitalization days, median (range) ([3]; 26-week study period, ITT) | percentage of patients hospitalized for RTI-related conditions ([3]; ITT) [%] | cumulative number of patients hospitalized for RTI-related conditions [3] | RTI-related hospitalizations across all visits, percentage ([3]; 26 weeks, ITT) [%] | cumulative number of RTI-related hospitalizations across all visits ([3]; 26 weeks, ITT) | other results
1 | CO/N=C1\CN(c2nc3c(cc2F)c(=O)c(C(=O)O)cn3C2CC2)CC1CN (racemic) [GEMI, (R,S)-7-(3-aminomethyl-4-methoxyiminopyrrolidin-1-yl)-1-cyclopropyl-6-fluoro-4-oxo-1,4-dihydro-1,8-naphthyridine-3-carboxylic acid] | 29.0 | 87.1 (176/202) % | 80.9 (148/183) % | 71.0% and 71.0 (120/169) % | 20 | 0.20 (1.43) days | 0 (0-16) days | 2.3 | 5 | 3.3 | 7 | preventing further exacerbations versus CLARI ([1]; 6 month period following start of therapy, GEMI 320 mg o.d./5 days vs CLARI 500 mg b.d./7 days): superior to CLARI; long-term clinical outcomes in AECB compared to clarithromycin ([1]; GLOBE conclusions): superior; fewer patients with a recurrence of AECB compared with CLARI ([1]; by week 26, relative reduction (29.0% vs. 41.5%)): 30%; Difference GEMI-CLARI in % patients with no recurrences ([1]; visit 2 (day 28-35)): 6.3%; Difference GEMI-CLARI in % patients with no recurrences ([1]; visit 3 (week 12)): 6.4%; Difference GEMI-CLARI in % patients with no recurrences ([1]; visit 4 (week 26)): 12.5% and 12.5^b %; effectiveness of acute treatment compared with CLARI ([2]; 5 days GEMI vs 7 days CLARI): as effective as; bacteriological success rates compared with CLARI ([2]; all study visits, significantly higher at late follow-up days 28-35): higher; Median difference gemifloxacin-clarithromycin in RTI-related hospitalization days (95% CI) ([3]; 26-week study period, ITT): 0 (0, 0) days; treatment difference in RTI-related hospitalizations ([3]; GEMI minus CLARI, 26 weeks): −3.87%; treatment difference in patients hospitalized for RTI-related conditions ([3]; GEMI minus CLARI, 26 weeks): −3.91%; time to H. influenzae eradication compared with CLARI (H. influenzae): significantly faster
2 | CC[C@H]1OC(=O)[C@H](C)[C@@H](O[C@H]2C[C@@](C)(OC)[C@@H](O)[C@H](C)O2)[C@H](C)[C@@H](O[C@@H]2O[C@H](C)C[C@H](N(C)C)[C@H]2O)[C@](C)(OC)C[C@@H](C)C(=O)[C@H](C)[C@@H](O)[C@]1(C)O [CLARI, clarithromycin, reference compound] | 41.5 | 80.8 (173/214) % | 74.4 (131/176) % | 58.5% and 58.5 (100/171) % | 37 | 0.37 (1.60) days | 0 (0-11) days | 6.3 | 14 | 7.1 | 16 | –
